Data set [1] deals with cell membranes or tight junctions. In kind it is cell-based. An excerpt:
Diketopiperazine facilitate transcellular transport of biologically active agents across biological tissues however they are not penetration enhancers. Penetration enhancers are compounds that improve drug movement across biological tissues by disrupting cell membranes. Examples of penetration enhancers are surfactants and soaps. […] Diketopiperazine/insulin powder compositions are soluble at the physiological pH of the lung surface and dissolve rapidly after inhalation. Once dissolved, the DKP facilitates passive transcellular transport of the insulin.

Data set [2] in a line: Laser diffraction particle size analysis. In kind it is physicochemical. The text has this:
The microparticles described in Examples 6 and 7 were subjected to laser diffraction particle size analysis (SympatecGmbH, Germany) (FIGS. 1A and 1B).

Values joined by “and” are separate entries in the source; they are usually repeats but may differ in a detail not shown here. Identical values can stand only once.

With `O=C(O)/C=C/C(=O)NCCCCC1NC(=O)C(CCCCNC(=O)/C=C/C(=O)O)NC1=O` (stereo not drawn) [FDKP, 3,6-di(fumaryl-4-aminobutyl)-2,5-diketopiperazine], in data set [1], the cell viability entry is “does not compromise cell viability” and the “disruption of cell membranes or tight junctions” value is listed as “does not disrupt cell membranes or tight junctions”.

Regarding `O=C([O-])C=CC(=O)NCCCCC1NC(=O)C(CCCCNC(=O)C=CC(=O)[O-])NC1=O.[Na+].[Na+]` (stereo not drawn) [Preparation A], in data set [2], the “Fine Particle Fraction (<5.8 μm)” value was 91.46% and 86.01%; the “Particle Size 0.5-5 μm” value is 87.91% and 80.13%; the “Particle Size <3 μm” value was 53.39% and 47.37%; the “VMD (volume median diameter)” value was 3.70 μm and 3.76 μm. Besides, in data set [2], the X10 is 1.60 μm and 1.55 μm; the X16 was 1.44 μm and 1.36 μm; the X50 is 2.89 μm and 3.11 μm; the X84 was 4.60 μm and 5.53 μm. For the same molecule, in data set [2], the X90 was 5.47 μm and 6.64 μm; the X99 is 19.20 μm and 14.04 μm.

The record behind these values is patent US10912821B2, “Diketopiperazine salts for drug delivery and related methods” (MannKind Corporation, priority 2004, dated 2021).
